The values that follow come from ChEMBL document CHEMBL1152778, “Design, synthesis, and biological evaluation of (2R,alphaS)-3,4-dihydro-2-[3-(1,1,2,2-tetrafluoroethoxy)phenyl]-5-[3-(trifluoromethoxy)-phenyl]-alpha-(trifluoromethyl)-1(2H)-quinolineethanol as potent and orally active cholesteryl ester transfer protein inhibitor” (J Med Chem, 2009).

Structures are written as SMILES. Activity calls are given as the source filed them. No cut-off for these calls is given here.

The target in data set [1] is T1, Cholesteryl ester transfer protein (Homo sapiens, UniProt P11597).
T1 sequence (P11597 whole entry): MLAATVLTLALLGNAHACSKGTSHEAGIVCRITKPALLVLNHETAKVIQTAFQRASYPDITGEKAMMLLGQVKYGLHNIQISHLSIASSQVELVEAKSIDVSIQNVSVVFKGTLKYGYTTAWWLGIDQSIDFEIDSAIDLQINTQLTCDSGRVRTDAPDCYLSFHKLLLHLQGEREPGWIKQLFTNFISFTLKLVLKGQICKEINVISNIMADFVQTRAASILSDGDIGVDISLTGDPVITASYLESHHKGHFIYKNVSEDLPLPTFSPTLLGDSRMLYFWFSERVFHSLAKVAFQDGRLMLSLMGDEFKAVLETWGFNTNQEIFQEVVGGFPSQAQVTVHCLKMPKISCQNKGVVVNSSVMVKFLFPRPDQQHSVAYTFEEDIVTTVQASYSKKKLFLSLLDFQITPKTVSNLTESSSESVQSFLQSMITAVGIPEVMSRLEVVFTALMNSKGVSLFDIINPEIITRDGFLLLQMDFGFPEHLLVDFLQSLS
As to the kind of experiment: Inhibition of CETP-mediated transfer of [3H]cholesteryl ester from HDL donar particles to LDL acceptor particles.

Data set [2] relates to Cynomolgus monkey. As to the kind of experiment: Ex vivo inhibition of CETP in normal chow diet-fed cynomolgus monkey at 3 mg/kg, po for 5 days by Roar assay. It is filed as functional. To be noted: Macaca fascicularis, 120 h.
A short description of data set [3]: Plasma concentration in normal chow diet-fed cynomolgus monkey at 3 mg/kg, po for 5 days. Also on record: dose 3 mg/kg, route oral. It is filed as ADME, organism-based, Macaca fascicularis.
Data set [4] has as its target T2, Lipoprotein lipase (Homo sapiens) (UniProt P06858).
T2 sequence (whole entry): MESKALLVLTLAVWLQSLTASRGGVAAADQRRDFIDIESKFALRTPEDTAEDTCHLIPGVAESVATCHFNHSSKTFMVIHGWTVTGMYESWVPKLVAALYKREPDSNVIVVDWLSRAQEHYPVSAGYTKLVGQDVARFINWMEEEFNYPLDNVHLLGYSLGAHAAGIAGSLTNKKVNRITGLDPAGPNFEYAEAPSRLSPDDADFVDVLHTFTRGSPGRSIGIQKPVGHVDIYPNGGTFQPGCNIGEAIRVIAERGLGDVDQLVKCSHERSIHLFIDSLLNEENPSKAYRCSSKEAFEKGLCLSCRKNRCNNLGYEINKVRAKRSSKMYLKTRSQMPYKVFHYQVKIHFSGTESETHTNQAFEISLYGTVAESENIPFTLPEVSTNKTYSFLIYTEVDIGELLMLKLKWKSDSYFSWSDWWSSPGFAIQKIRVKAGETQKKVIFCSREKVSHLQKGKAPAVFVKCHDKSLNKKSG
The experiment in a line: Inhibition of lipoprotein lipase activity assessed as release of free fatty acid from hydrolysis of VLDL by cell based assay.

For data set [5], the target named is T3, Phosphatidylcholine-sterol acyltransferase (Homo sapiens) (UniProt P04180).
T3 sequence (whole entry): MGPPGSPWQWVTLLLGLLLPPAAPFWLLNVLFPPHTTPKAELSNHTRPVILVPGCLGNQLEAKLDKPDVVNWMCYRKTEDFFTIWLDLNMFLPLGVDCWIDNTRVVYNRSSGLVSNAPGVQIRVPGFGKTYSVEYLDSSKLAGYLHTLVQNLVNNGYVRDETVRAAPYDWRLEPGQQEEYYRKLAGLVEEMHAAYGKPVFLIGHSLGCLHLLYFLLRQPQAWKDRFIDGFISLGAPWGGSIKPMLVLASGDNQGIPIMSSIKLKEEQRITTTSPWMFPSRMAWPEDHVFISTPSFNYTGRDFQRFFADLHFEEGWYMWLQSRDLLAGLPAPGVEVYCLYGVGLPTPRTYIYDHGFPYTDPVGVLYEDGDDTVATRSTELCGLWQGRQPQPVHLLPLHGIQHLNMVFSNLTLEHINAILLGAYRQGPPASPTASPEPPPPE
The experiment in a line: Inhibition of LCAT activity in human plasma assessed as change in cholesteryl ester/free cholesterol ratio by cell based assay.

Another data set relates to Hamster. The experiment in a line: Increase in HDLC level in high-fat fed hamster model at 30 mg/kg, po for 5 days measured after 2 hrs of last dose. It is filed as functional, Cricetinae.
A short description of data set [6]: Plasma concentration in normal chow diet-fed cynomolgus monkey at 10 mg/kg, po for 5 days. It counts as ADME, organism-based, Macaca fascicularis. Also on record: dose 10 mg/kg, route oral.
Another data set deals with Mus musculus. As to the kind of experiment: Increase in HDLC level in normal chow diet-fed human CETP transgenic mouse model at 30 mg/kg, po for 5 days measured after 2 hrs of last dose. It counts as functional.
Data set [7] addresses T4, Microsomal triglyceride transfer protein large subunit (Homo sapiens) (UniProt P55157).
T4 sequence (whole entry): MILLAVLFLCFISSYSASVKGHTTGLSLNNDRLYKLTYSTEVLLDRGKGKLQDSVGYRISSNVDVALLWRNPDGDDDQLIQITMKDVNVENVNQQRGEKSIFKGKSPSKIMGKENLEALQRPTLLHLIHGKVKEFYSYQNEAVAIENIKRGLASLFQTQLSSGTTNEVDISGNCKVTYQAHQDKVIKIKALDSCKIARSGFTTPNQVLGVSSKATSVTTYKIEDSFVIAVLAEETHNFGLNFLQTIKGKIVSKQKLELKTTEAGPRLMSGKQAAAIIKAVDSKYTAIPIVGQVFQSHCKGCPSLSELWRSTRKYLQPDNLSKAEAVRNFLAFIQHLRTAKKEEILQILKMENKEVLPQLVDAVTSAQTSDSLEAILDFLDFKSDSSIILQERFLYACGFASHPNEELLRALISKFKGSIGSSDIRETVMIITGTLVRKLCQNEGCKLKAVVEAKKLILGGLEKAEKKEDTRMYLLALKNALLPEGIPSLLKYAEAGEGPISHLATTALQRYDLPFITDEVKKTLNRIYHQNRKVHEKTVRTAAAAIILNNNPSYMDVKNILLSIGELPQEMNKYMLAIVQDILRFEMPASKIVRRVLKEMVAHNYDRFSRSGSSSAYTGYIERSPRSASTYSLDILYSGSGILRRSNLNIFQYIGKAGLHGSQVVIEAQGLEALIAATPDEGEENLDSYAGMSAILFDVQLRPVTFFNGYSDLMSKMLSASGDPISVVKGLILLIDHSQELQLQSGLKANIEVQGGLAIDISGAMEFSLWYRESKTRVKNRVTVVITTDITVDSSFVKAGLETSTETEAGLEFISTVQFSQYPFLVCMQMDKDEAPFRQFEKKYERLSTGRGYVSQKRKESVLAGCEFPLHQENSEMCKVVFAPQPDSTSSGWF
As to the kind of experiment: Inhibition of microsomal triglyceride transfer protein by cell based assay.

Data set [8] concerns the target T5, Hepatic triacylglycerol lipase (Homo sapiens) (UniProt P11150).
T5 sequence (whole entry): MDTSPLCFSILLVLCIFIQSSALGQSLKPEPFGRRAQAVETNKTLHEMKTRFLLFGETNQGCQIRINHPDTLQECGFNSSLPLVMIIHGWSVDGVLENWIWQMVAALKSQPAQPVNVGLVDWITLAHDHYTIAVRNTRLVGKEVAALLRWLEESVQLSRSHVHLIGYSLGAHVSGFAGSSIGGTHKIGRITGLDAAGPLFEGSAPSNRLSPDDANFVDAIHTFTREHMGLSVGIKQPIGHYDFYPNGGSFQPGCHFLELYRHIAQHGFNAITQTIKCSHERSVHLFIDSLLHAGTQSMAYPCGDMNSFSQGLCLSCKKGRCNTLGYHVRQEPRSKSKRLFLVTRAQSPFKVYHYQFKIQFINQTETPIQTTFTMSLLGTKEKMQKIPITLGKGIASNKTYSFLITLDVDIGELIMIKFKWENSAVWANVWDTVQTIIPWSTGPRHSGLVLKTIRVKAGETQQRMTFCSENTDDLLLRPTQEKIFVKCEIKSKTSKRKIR
As to the kind of experiment: Inhibition of hepatic lipase activity assessed as release of free fatty acid from hydrolysis of VLDL by cell based assay.

Data set [9] concerns the target Phospholipid transfer protein (Homo sapiens) (UniProt P55058). As to the kind of experiment: Inhibition of PLTP activity assessed as phosphatidylcholine transferred from [3H]phosphatidylcholine (dipalmitoyl)-labeled liposomes to HDL by cell based liquid scintillation counter.
Data set [10] in a line: Plasma concentration in normal chow diet-fed cynomolgus monkey at 30 mg/kg, po for 5 days. It is filed as ADME, organism-based, Macaca fascicularis. Also on record: dose 30 mg/kg, route oral.
In data set [11] the test system is Cynomolgus monkey. The experiment in a line: Ex vivo inhibition of CETP in normal chow diet-fed cynomolgus monkey at 10 mg/kg, po for 5 days by Roar assay. It is filed as functional. As to conditions: Macaca fascicularis, 120 h.
Data set [12] concerns Cynomolgus monkey. The experiment in a line: Increase in HDLC level in normal chow diet-fed cynomolgus monkey at 3 mg/kg, po for 5 days measured after 10 hrs of last dose. It counts as functional, Macaca fascicularis.
The subject of data set [13] is Cynomolgus monkey. As to the kind of experiment: Increase in HDLC level in normal chow diet-fed cynomolgus monkey at 30 mg/kg, po for 5 days measured after 10 hrs of last dose. It counts as functional, Macaca fascicularis.
Data set [14] deals with Cynomolgus monkey. The experiment in a line: Ex vivo inhibition of CETP in normal chow diet-fed cynomolgus monkey at 30 mg/kg, po for 5 days by Roar assay. It is filed as functional. To be noted: Macaca fascicularis, 120 h.
The target of data set [15] is T6, Endothelial lipase (Homo sapiens) (UniProt Q9Y5X9).
T6 sequence (whole entry): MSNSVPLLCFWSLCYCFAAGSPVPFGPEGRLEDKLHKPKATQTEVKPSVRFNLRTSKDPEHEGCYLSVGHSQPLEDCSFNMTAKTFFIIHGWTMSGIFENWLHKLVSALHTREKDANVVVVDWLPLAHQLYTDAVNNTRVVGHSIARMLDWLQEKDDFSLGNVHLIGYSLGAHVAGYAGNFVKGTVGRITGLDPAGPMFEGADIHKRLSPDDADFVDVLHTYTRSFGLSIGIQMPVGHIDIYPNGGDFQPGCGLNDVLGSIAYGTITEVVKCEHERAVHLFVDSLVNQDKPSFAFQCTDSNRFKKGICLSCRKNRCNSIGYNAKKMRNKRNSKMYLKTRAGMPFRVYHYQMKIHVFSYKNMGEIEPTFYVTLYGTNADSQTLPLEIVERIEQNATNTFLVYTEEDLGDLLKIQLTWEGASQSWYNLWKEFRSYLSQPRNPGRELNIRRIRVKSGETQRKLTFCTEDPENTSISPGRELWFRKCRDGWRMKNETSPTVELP
The experiment in a line: Inhibition of endothelial lipase by cell based assay.

In data set [16] the test system is Cynomolgus monkey. As to the kind of experiment: Increase in HDLC level in normal chow diet-fed cynomolgus monkey at 10 mg/kg, po for 5 days measured after 10 hrs of last dose. It is filed as functional, Macaca fascicularis.

Phospholipid transfer protein (Homo sapiens), sequence (P55058 whole entry): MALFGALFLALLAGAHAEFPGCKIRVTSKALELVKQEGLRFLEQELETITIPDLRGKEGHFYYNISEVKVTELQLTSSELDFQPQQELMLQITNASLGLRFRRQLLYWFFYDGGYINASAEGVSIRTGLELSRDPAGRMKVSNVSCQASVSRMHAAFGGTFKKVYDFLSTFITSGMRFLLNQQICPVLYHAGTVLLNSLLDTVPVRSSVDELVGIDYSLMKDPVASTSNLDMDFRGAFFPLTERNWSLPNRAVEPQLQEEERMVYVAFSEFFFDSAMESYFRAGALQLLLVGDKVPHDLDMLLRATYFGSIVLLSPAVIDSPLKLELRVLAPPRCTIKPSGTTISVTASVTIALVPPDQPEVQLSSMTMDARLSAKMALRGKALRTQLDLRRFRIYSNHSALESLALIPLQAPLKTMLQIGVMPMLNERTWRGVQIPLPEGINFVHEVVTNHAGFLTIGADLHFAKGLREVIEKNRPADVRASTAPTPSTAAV

In the case of `OC(CN1c2cccc(-c3cccc(OC(F)(F)F)c3)c2CCC1c1cccc(OC(F)(F)C(F)F)c1)C(F)(F)F` (racemic), the IC50 – broadly, the concentration at which inhibition is half-maximal – in [1] came out at 0.045 µM.

As to `CCOC(=O)N1c2ccc(C(F)(F)F)cc2[C@@H](N(Cc2cc(C(F)(F)F)cc(C(F)(F)F)c2)C(=O)OC)C[C@H]1CC` [TORCETRAPIB], the inhibition in vivo (as a rule, how much of the control response was suppressed) at 3 mg/kg in the data set with Cynomolgus monkey [2] stood at 35%. Also, the concentration at 120 h in data set [3] was 0.3 µM; in [6], 1.3 µM; in data set [10], 2.9 µM. The outcome in [4], in data set [5], in data set [7], in data set [8], in [9] and in data set [15] was inactive. Besides, the Activity worked out at 44% in the data set on Hamster; 28% in the data set with Mus musculus; 24% with Cynomolgus monkey [12]; 44% in the data set on Cynomolgus monkey [13]; 41% with Cynomolgus monkey [16]. This compound displayed an inhibition in vivo at 10 mg/kg with Cynomolgus monkey [11] of 66%. This compound displayed an inhibition in vivo at 30 mg/kg with Cynomolgus monkey [14] of 85%.
